According to patent US20090074926A1, “Preservation of acidic beverages” (PURAC BIOCHEM B.V., priority 2007, published 2009):
Where two headings read alike, the source gives them in different places.

Key:
Type in all cases: cell-based
Saccharomyces cerevisiae = assay: Screening of combinations of three ingredients, outgrowth in GPY-broth pH 3.5
Description: These combination tests were also carried out in sterile 96-well microtiter plates. Sterile GPY-broth was prepared with increasing quantities of inhibitors. For the first dimension the concentrations of the first inhibitor was presented in 8 equal concentration steps. For the second dimension a fixed ratio of two other inhibitors was chosen. This mixture was presented in 8 equal concentration steps resulting in 64 different media. […] of each medium was transferred to a panel of a sterile 96-well microtiter plate. Completed well plates were stored at 4° C. until further use. Plates were inoculated with 2 μL of two days old cultures and incubated for 96 hours at 25° C. Growth was quantified by measuring the optical density at 595 nm in a microplate reader and expressed as a percentage of the growth in the control, which contained no inhibitor. All the experiments were carried out in duplicate.

a collection of yeasts = details: pH 3.5
Description: Cultures were grown in GPY-broth that contained per liter demineralised-water: 40 g glucose, 5 g peptone and 5 g yeast extract, the pH of the medium to 3.5 with 2 N HCl. Cultures were grown in screw-capped tubes for at least 48 hours at 25° C. Pichia membranifaciens MUCL 27794, CBS 8427 and CBS 5567, Rhodotorula glutinis CBS 2367, Rhodotorula mucilaginosa CBS 8054 and CBS 2401 and Zygosaccharomyces bailii MUCL 27812 were cultured in shake flasks
The inhibition tests were carried out in sterile 96-well microtiter plates. Increasing amounts (0 to 100 μL in 10 steps of 10 μL) of a sterile stock solution of each compound were transferred to sterile microtiter plates. Next 100 μL of filter sterilized double strength GPY-broth was added and the volume of each well was adjusted to 200 μL with sterile demineralized-water. Plates were inoculated with 2 μL of two days old cultures and incubated for 96 hours at 25° C. Growth was quantified by measuring the optical density at 595 nm in a microplate reader. All the experiments were carried out in duplicate.

[1] = tested on: Schizosaccharomyces pombe; assay: Screening of combinations of two inhibitors, outgrowth in GPY-broth pH 3.5
Description: These combination tests were carried out in sterile 96-well microtiter plates. Sterile GPY-broth was prepared with increasing quantities of two different inhibitors. The concentrations of each inhibitor were presented in 8 equal concentration steps that ranged from 0 to 1-2 times the MIC value of a particular yeast for a particular inhibitor resulting in 64 different media. […] of each medium was transferred to a panel of a sterile 96-well microtiter plate. Completed well plates were stored at 4° C. until further use.
Plates were inoculated with 2 μL of two days old cultures and incubated for 96 hours at 25° C. Growth was quantified by measuring the optical density at 595 nm in a microplate reader and expressed as a percentage of the growth in the control, which contained no inhibitor. All the experiments were carried out in duplicate.

O=C(O)C=Cc1ccccc1 [Cinnamic acid, cinnamic acid]
Outgrowth (% of outgrowth at zero concentration inhibitor) (Saccharomyces cerevisiae; MCE 8060-ε-polylysine mixture (ratio 18.9) 0, cinnamic acid 0.002 (% w/v)): 76% | Outgrowth (% of outgrowth at zero concentration inhibitor) (Saccharomyces cerevisiae; MCE 8060-ε-polylysine mixture (ratio 18.9) 0, cinnamic acid 0.004 (% w/v)): 44% | Outgrowth (% of outgrowth at zero concentration inhibitor) (Saccharomyces cerevisiae; MCE 8060-ε-polylysine mixture (ratio 18.9) 0, cinnamic acid 0.006 (% w/v)): 1% | Outgrowth (% of outgrowth at zero concentration inhibitor) (Saccharomyces cerevisiae; MCE 8060-ε-polylysine mixture (ratio 18.9) 0, cinnamic acid 0.008 (% w/v)): 0% | Outgrowth (% of outgrowth at zero concentration inhibitor) (Saccharomyces cerevisiae; MCE 8060-ε-polylysine mixture (ratio 18.9) 0, cinnamic acid 0.01 (% w/v)): 2% | Outgrowth (% of outgrowth at zero concentration inhibitor) (Saccharomyces cerevisiae; MCE 8060-ε-polylysine mixture (ratio 18.9) 0, cinnamic acid 0.012 (% w/v)): 1% | Outgrowth (% of outgrowth at zero concentration inhibitor) (Saccharomyces cerevisiae; MCE 8060-ε-polylysine mixture (ratio 18.9) 0, cinnamic acid 0.014 (% w/v)): 0% | Comparison of inhibitory potency (in words) (a collection of yeasts; MIC values of a number of yeasts): more effective than sorbic acid | MICavg (Average Minimal Inhibitory Concentration) (a collection of yeasts; collection of yeasts): 0.009 ± 0.007 % w/v | MICmax (Maximum MIC) (a collection of yeasts; collection of yeasts): 0.03 % w/v | MICmax/MICavg (a collection of yeasts; collection of yeasts): 3.0

C/C=C/C=C/C(=O)[O-].[K+] [Potassium sorbate, potassium sorbate]
Outgrowth (% of outgrowth at zero concentration inhibitor) ([1]; ε-polylysine 0, potassium sorbate 0.007 (% w/v)): 81% | Outgrowth (% of outgrowth at zero concentration inhibitor) ([1]; ε-polylysine 0, potassium sorbate 0.014 (% w/v)): 69% | Outgrowth (% of outgrowth at zero concentration inhibitor) ([1]; ε-polylysine 0, potassium sorbate 0.021 (% w/v)): 56% | Outgrowth (% of outgrowth at zero concentration inhibitor) ([1]; ε-polylysine 0, potassium sorbate 0.028 (% w/v)): 44% | Outgrowth (% of outgrowth at zero concentration inhibitor) ([1]; ε-polylysine 0, potassium sorbate 0.035 (% w/v)): 30% | Outgrowth (% of outgrowth at zero concentration inhibitor) ([1]; ε-polylysine 0, potassium sorbate 0.042 (% w/v)): 20% | Outgrowth (% of outgrowth at zero concentration inhibitor) ([1]; ε-polylysine 0, potassium sorbate 0.049 (% w/v)): 7%

C/C=C/C=C/C(=O)O [Sorbic acid]
MICavg (Average Minimal Inhibitory Concentration) (a collection of yeasts): 0.030 ± 0.020 % w/v | MICmax (Maximum MIC) (a collection of yeasts): 0.07 % w/v | MICmax/MICavg (a collection of yeasts): 2.5
